The values that follow come from article PMC5678291, “Molecular Mechanism of Enzymatic Chlorite Detoxification: Insights from Structural and Kinetic Studies” (ACS Catalysis, 2017).

For one data set, the target named is Arg127 (UniProt position 127, LPGVARRLLHC). The data set is described as follows: neutron. Particulars: 293 K; 0.15 M MgSO4; 0.1 M glycine-NaOH pH 9.0, 0.15 M MgSO4, 30% PEG 3350, 5% glycerol; Ferric CCld crystal, hydroxide (OD-) bound to the haem iron, Arg127 in the 'out' conformation.
A further data set concerns the target T1, CCld (Cyanothece sp. PCC 7425, UniProt B8HNS6).
T1 construct: gene Cyan7425_1434
The data set is described as follows: UV-vis titration. It is filed as binding. The conditions noted are these: read-out: dissociation constant.

T1 sequence (B8HNS6 entry or part of it): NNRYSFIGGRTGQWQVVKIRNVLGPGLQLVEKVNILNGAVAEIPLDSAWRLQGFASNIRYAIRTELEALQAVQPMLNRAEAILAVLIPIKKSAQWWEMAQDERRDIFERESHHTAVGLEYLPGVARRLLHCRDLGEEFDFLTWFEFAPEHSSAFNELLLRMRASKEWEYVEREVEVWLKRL

Consider “Chlorite dismutase (CCld) (Cyanothece sp. PCC7425)”, for which, in the data set with Arg127, the pKa is given as >9.0 (protonated at pH 9.0).

For `N#CS` [SCN^–, thiocyanate], the Kd on CCld was determined as 0.074 mM. Same read-out and setting: the same measure for `F` [F^–, fluoride]: 12.6 mM.
